# From ChEMBL document CHEMBL1201862, “PubChem BioAssay data set” (2004)
#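 Interpolation was linear, between the two tested concentrations surrounding the appropriate level; five concentrations were tested over 48 hours in 96-well plates. Here, GI50 denotes the concentration required for 50% inhibition of growth.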 The source made the active and inactive calls. Cut-off read from the data, not from the text of the source: active = GI50 up to about 1.1 µM and inactive = higher.
# Columns and labels:
# Test in all cases: NCI-60 cell line screen, 48 h
# [1] = tested on: A549
# [2] = tested on: OVCAR-8
# [3] = tested on: IGROV-1
# [4] = tested on: T47D
# [5] = tested on: CAKI-1
# [6] = tested on: SNB-19
# [7] = tested on: OVCAR-4
# [8] = tested on: TK-10
# [9] = tested on: U-251
# [10] = tested on: PC-3
# [11] = tested on: UACC-257
# [12] = tested on: RPMI-8226
# [13] = tested on: SF-295
# [14] = tested on: A498
# [15] = tested on: HOP-92
# [16] = tested on: DU-145
# [17] = tested on: KM12
# [18] = tested on: SK-MEL-2
# [19] = tested on: Malme-3M
# [20] = tested on: HCC 2998
Structure (SMILES),GI50 [1],GI50 [2],GI50 [3],GI50 [4],GI50 [5],GI50 [6],GI50 [7],GI50 [8],GI50 [9],GI50 [10],GI50 [11],GI50 [12],GI50 [13],GI50 [14],GI50 [15],GI50 [16],GI50 [17],GI50 [18],GI50 [19],GI50 [20]
CC1(C)CCC2=C(O1)/C(=N\Nc1ccccc1)c1ccccc1C2=O,27.2 µM (inactive),36.2 µM (inactive),34.6 µM (inactive),18.8 µM (inactive),24 µM (inactive),40.4 µM (inactive),31.2 µM (inactive),17.8 µM (inactive),24.8 µM (inactive),24.1 µM (inactive),18.7 µM (inactive),31.4 µM (inactive),24.9 µM (inactive),20 µM (inactive),24 µM (inactive),29.8 µM (inactive),32.8 µM (inactive),16 µM (inactive),43.9 µM (inactive),–
COc1ccc2c(c1)C(N)=C(c1ccccc1OC)C2=O,–,> 100 µM (inactive),> 100 µM (inactive),> 100 µM (inactive),> 100 µM (inactive),> 100 µM (inactive),99.5 µM (inactive),> 100 µM (inactive),> 100 µM (inactive),85.7 µM (inactive),> 100 µM (inactive),> 100 µM (inactive),> 100 µM (inactive),> 100 µM (inactive),> 100 µM (inactive),> 100 µM (inactive),76.6 µM (inactive),> 100 µM (inactive),> 100 µM (inactive),> 100 µM (inactive)
Cc1ccc2nc(NC(=O)/C(Cc3nc4ccc(Cl)cc4nc3O)=N\NC(C)(C)C)sc2c1,> 100 µM (inactive),> 100 µM (inactive),–,> 100 µM (inactive),41.8 µM (inactive),> 100 µM (inactive),12.5 µM (inactive),–,> 100 µM (inactive),> 100 µM (inactive),> 100 µM (inactive),> 100 µM (inactive),36.1 µM (inactive),> 100 µM (inactive),> 100 µM (inactive),> 100 µM (inactive),> 100 µM (inactive),> 100 µM (inactive),–,> 100 µM (inactive)
O=c1[nH]nc(Cc2ccc(Cl)cc2)n1/N=C/c1cccs1,64.9 µM (inactive),27.5 µM (inactive),23.1 µM (inactive),> 100 µM (inactive),36.5 µM (inactive),20.4 µM (inactive),> 100 µM (inactive),–,28.4 µM (inactive),> 100 µM (inactive),> 100 µM (inactive),> 100 µM (inactive),18.9 µM (inactive),29.1 µM (inactive),24.6 µM (inactive),99.8 µM (inactive),> 100 µM (inactive),22.4 µM (inactive),> 100 µM (inactive),> 100 µM (inactive)
COc1ccc2nc3cc(Cl)ccc3c(NCCNCCCNC(=O)c3cc(-c4ccccc4)nc4ccccc34)c2c1,> 100 µM (inactive),> 100 µM (inactive),> 100 µM (inactive),> 100 µM (inactive),> 100 µM (inactive),> 100 µM (inactive),> 100 µM (inactive),> 100 µM (inactive),> 100 µM (inactive),56.6 µM (inactive),> 100 µM (inactive),> 100 µM (inactive),> 100 µM (inactive),> 100 µM (inactive),> 100 µM (inactive),> 100 µM (inactive),70.8 µM (inactive),–,97.5 µM (inactive),> 100 µM (inactive)
O=[N+]([O-])c1cccc(/N=N/c2c(O)c(S(=O)(=O)O)cc3cc(S(=O)(=O)O)ccc23)c1,> 100 µM (inactive),> 100 µM (inactive),> 100 µM (inactive),> 100 µM (inactive),> 100 µM (inactive),> 100 µM (inactive),> 100 µM (inactive),> 100 µM (inactive),> 100 µM (inactive),> 100 µM (inactive),> 100 µM (inactive),–,> 100 µM (inactive),> 100 µM (inactive),> 100 µM (inactive),> 100 µM (inactive),> 100 µM (inactive),> 100 µM (inactive),> 100 µM (inactive),> 100 µM (inactive)
Nc1ccc(S(=O)(=O)Nc2nccs2)cc1 [SULFATHIAZOLE],> 100 µM (inactive),> 100 µM (inactive),> 100 µM (inactive),> 100 µM (inactive),–,> 100 µM (inactive),> 100 µM (inactive),> 100 µM (inactive),> 100 µM (inactive),> 100 µM (inactive),> 100 µM (inactive),> 100 µM (inactive),> 100 µM (inactive),> 100 µM (inactive),0.0101 µM (active),> 100 µM (inactive),> 100 µM (inactive),> 100 µM (inactive),> 100 µM (inactive),> 100 µM (inactive)
